System: Endogenous Huntingtin Protein (capture with MW1 (expanded polyglutamine) or MAB2166 antibody)
Assay: Endogenous Huntingtin Protein Assay (ELISA-based Meso Scale Discovery electrochemiluminescence assay)
Type: cell-based
Settings: MSD electrochemiluminescence platform
Method in brief: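 MSD electrochemiluminescence sandwich immunoassay: plates coated with 1 μg/mL MW1 or MAB2166 capture antibody, samples incubated overnight at 4 °C. Detection with rabbit monoclonal #5656S then SULFO-TAG anti-rabbit (each 0.25 μg/mL, 1 h RT).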

Row | Compound | IC50 [nM]
1 | 6-[6-(6-{[(3R,4S)-3-fluoro-2,2,6,6-tetramethylpiperidin-4-yl]oxy}pyridazin-3-yl)-5-hydroxypyridin-3-yl]-2-methylimidazo[1,2-a]pyridine-8-carbonitrile and 6-[6-(6-{[(3S,4R)-3-fluoro-2,2,6,6-tetramethylpiperidin-4-yl]oxy}pyridazin-3-yl)-5-hydroxypyridin-3-yl]-2-methylimidazo[1,2-a]pyridine-8-carbonitrile [Compound 59] | ≤ 100
2 | Cc1cn2cc(-c3cnc(-c4ccc(N5C[C@@H](C)N[C@@H](C)C5)nn4)c(O)c3)ccc2n1 [Compound 92, 2-{6-[(3R,5S)-3,5-dimethylpiperazin-1-yl]pyridazin-3-yl}-5-(2-methylimidazo[1,2-a]pyridin-6-yl)pyridin-3-ol and 2-{6-[(3S,5R)-3,5-dimethylpiperazin-1-yl]pyridazin-3-yl}-5-(2-methylimidazo[1,2-a]pyridin-6-yl)pyridin-3-ol] | ≤ 100
3 | COc1cc(-c2cnc(-c3ccc(N4C[C@@H](C)N[C@@H](C)C4)nn3)c(O)c2)cc2cn(C)nc12 [Compound 87, 2-{6-[(3R,5S)-3,5-dimethylpiperazin-1-yl]pyridazin-3-yl}-5-(7-methoxy-2-methyl-2H-indazol-5-yl)pyridin-3-ol and 2-{6-[(3S,5R)-3,5-dimethylpiperazin-1-yl]pyridazin-3-yl}-5-(7-methoxy-2-methyl-2H-indazol-5-yl)pyridin-3-ol] | ≤ 100
4 | CN(c1ncc(-c2ncc(-n3nccn3)cc2O)nn1)C1CC(C)(C)NC(C)(C)C1 [Compound 144, 2-{3-[methyl(2,2,6,6-tetramethylpiperidin-4-yl)amino]-1,2,4-triazin-6-yl}-5-(2H-1,2,3-triazol-2-yl)pyridin-3-ol] | ≤ 100
5 | C[C@@H]1CN(c2ccc(-c3ncc(-c4ccc5ncnn5c4)cc3O)nn2)C[C@H](C)N1 [Compound 94, 2-{6-[(3R,5S)-3,5-dimethylpiperazin-1-yl]pyridazin-3-yl}-5-([1,2,4]triazolo[1,5-a]pyridin-6-yl)pyridin-3-ol and 2-{6-[(3S,5R)-3,5-dimethylpiperazin-1-yl]pyridazin-3-yl}-5-([1,2,4]triazolo[1,5-a]pyridin-6-yl)pyridin-3-ol] | 500 to 1000
6 | 5-(1H-pyrazol-4-yl)-2-{6-[(3R,5S)-3,4,5-trimethylpiperazin-1-yl]pyridazin-3-yl}pyridin-3-ol and 5-(1H-pyrazol-4-yl)-2-{6-[(3S,5R)-3,4,5-trimethylpiperazin-1-yl]pyridazin-3-yl}pyridin-3-ol [Compound 90] | 100 to 500
7 | Cn1cc2c(-c3cnc(-c4ccc(O[C@@H]5CC(C)(C)NC(C)(C)[C@@H]5F)nn4)c(O)c3)ccc(F)c2n1.Cn1cc2c(-c3cnc(-c4ccc(O[C@H]5CC(C)(C)NC(C)(C)[C@H]5F)nn4)c(O)c3)ccc(F)c2n1 (mixture of isomers) [Compound 58, 5-(7-fluoro-2-methyl-2H-indazol-4-yl)-2-(6-{[(3R,4S)-3-fluoro-2,2,6,6-tetramethylpiperidin-4-yl]oxy}pyridazin-3-yl)pyridin-3-ol and 5-(7-fluoro-2-methyl-2H-indazol-4-yl)-2-(6-{[(3S,4R)-3-fluoro-2,2,6,6-tetramethylpiperidin-4-yl]oxy}pyridazin-3-yl)pyridin-3-ol] | 500 to 1000
8 | CN(c1ccc(-c2ncc(-c3ccn(C)n3)cc2O)nn1)C1CC(C)(C)NC(C)(C)C1 [Compound 13, 5-(1-methyl-1H-pyrazol-3-yl)-2-{6-[methyl(2,2,6,6-tetramethylpiperidin-4-yl)amino]pyridazin-3-yl}pyridin-3-ol] | ≤ 100
9 | C[C@@H]1CN(c2ccc(-c3ncc(/C=C/c4cnn(C)c4)cc3O)nn2)C[C@H](C)N1 [Compound 118, 2-{6-[(3R,5S)-3,5-dimethylpiperazin-1-yl]pyridazin-3-yl}-5-[(E)-2-(1-methyl-1H-pyrazol-4-yl)ethenyl]pyridin-3-ol and 2-{6-[(3S,5R)-3,5-dimethylpiperazin-1-yl]pyridazin-3-yl}-5-[(E)-2-(1-methyl-1H-pyrazol-4-yl)ethenyl]pyridin-3-ol] | ≤ 100
10 | CC1(C)CC(Oc2ccc(-c3ncc(-c4cn[nH]c4)cc3O)nn2)CC(C)(C)N1 [Compound 1, 5-(1H-pyrazol-4-yl)-2-{6-[(2,2,6,6-tetramethylpiperidin-4-yl)oxy]pyridazin-3-yl}pyridin-3-ol] | ≤ 100
11 | 2-(6-{[(3R,4S)-3-fluoro-2,2,6,6-tetramethylpiperidin-4-yl]oxy}pyridazin-3-yl)-5-(imidazo[1,2-b]pyridazin-6-yl)pyridin-3-ol and 2-(6-{[(3S,4R)-3-fluoro-2,2,6,6-tetramethylpiperidin-4-yl]oxy}pyridazin-3-yl)-5-(imidazo[1,2-b]pyridazin-6-yl)pyridin-3-ol [Compound 49] | ≤ 100
12 | Oc1cc(-c2cn[nH]c2)cnc1-c1ccc(OC2CC3(CC3)NC3(CC3)C2)nn1 (stereo not drawn) [Compound 31, 2-{6-[(4-azadispiro[2.1.2^5.3^3]decan-9-yl)oxy]pyridazin-3-yl}-5-(1H-pyrazol-4-yl)pyridin-3-ol] | 100 to 500
13 | 2-(6-{[(3R,4S)-3-fluoro-2,2,6,6-tetramethylpiperidin-4-yl]oxy}pyridazin-3-yl)-5-(4-methyl-1H-imidazol-1-yl)pyridin-3-ol and 2-(6-{[(3S,4R)-3-fluoro-2,2,6,6-tetramethylpiperidin-4-yl]oxy}pyridazin-3-yl)-5-(4-methyl-1H-imidazol-1-yl)pyridin-3-ol [Compound 41] | 100 to 500

Results, then the compound that gave them:

Row | IC50 [nM] | Compound
14 | ≤ 100 | 2-(6-{[(3R,4R)-3-fluoro-2,2,6,6-tetramethylpiperidin-4-yl]amino}pyridazin-3-yl)-5-[1-(^2H3)methyl-1H-pyrazol-4-yl]pyridin-3-ol or 2-(6-{[(3S,4S)-3-fluoro-2,2,6,6-tetramethylpiperidin-4-yl]amino}pyridazin-3-yl)-5-[1-(^2H3)methyl-1H-pyrazol-4-yl]pyridin-3-ol [Compound 19]
15 | ≤ 100 | [2H]C([2H])([2H])Oc1cc(-c2cnc(-c3ccc(N[C@@H]4CC(C)(C)NC(C)(C)[C@@H]4F)nn3)c(O)c2)ncn1 [Compound 25, 2-(6-{[(3R,4R)-3-fluoro-2,2,6,6-tetramethylpiperidin-4-yl]amino}pyridazin-3-yl)-5-{6-[(^2H3)methyloxy]pyrimidin-4-yl}pyridin-3-ol]
16 | ≤ 100 | C[C@@H]1CN(c2ccc(-c3ncc(-c4ccc5nn(C)cc5c4)cc3O)nn2)C[C@H](C)N1 [Compound 124, 2-{6-[(3R,5S)-3,5-dimethylpiperazin-1-yl]pyridazin-3-yl}-5-(2-methyl-2H-indazol-5-yl)pyridin-3-ol and 2-{6-[(3S,5R)-3,5-dimethylpiperazin-1-yl]pyridazin-3-yl}-5-(2-methyl-2H-indazol-5-yl)pyridin-3-ol]
17 | 500 to 1000 | CC1CN(c2ccc(-c3ncc(Nc4cccnc4)cc3O)nn2)CCN1 (stereo not drawn) [Compound 117, 2-[6-(3-methylpiperazin-1-yl)pyridazin-3-yl]-5-[(pyridin-3-yl)amino]pyridin-3-ol]
18 | ≤ 100 | CC1(C)C[C@H](Oc2ccc(-c3ncc(-c4cn[nH]c4)cc3O)nn2)[C@H](F)C(C)(C)N1 (single isomer, unassigned) [Compound 51, 2-(6-{[(3R,4S)-3-fluoro-2,2,6,6-tetramethylpiperidin-4-yl]oxy}pyridazin-3-yl)-5-(1H-pyrazol-4-yl)pyridin-3-ol or 2-(6-{[(3S,4R)-3-fluoro-2,2,6,6-tetramethylpiperidin-4-yl]oxy}pyridazin-3-yl)-5-(1H-pyrazol-4-yl)pyridin-3-ol]
19 | 100 to 500 | Cc1cn2cc(-c3cnc(-c4cnc(N5CC[C@@H](NC(C)(C)C)C5)nn4)c(O)c3)cc(C#N)c2n1 [Compound 147, 6-(6-{3-[(3R)-3-(tert-butylamino)pyrrolidin-1-yl]-1,2,4-triazin-6-yl}-5-hydroxypyridin-3-yl)-2-methylimidazo[1,2-a]pyridine-8-carbonitrile]
20 | ≤ 100 | CC1(C)CC(Oc2ccc(-c3ncc(-c4nccs4)cc3O)nn2)CC2(CC2)N1 (stereo not drawn) [Compound 79, 2-{6-[(5,5-dimethyl-4-azaspiro[2.5]octan-7-yl)oxy]pyridazin-3-yl}-5-(1,3-thiazol-2-yl)pyridin-3-ol]
21 | 100 to 500 | Oc1cc(-n2nccn2)cnc1-c1ccc(OC2CC3(CC3)NC3(CC3)C2)nn1 (stereo not drawn) [Compound 73, 2-{6-[(4-azadispiro[2.1.2^5.3^3]decan-9-yl)oxy]pyridazin-3-yl}-5-(2H-1,2,3-triazol-2-yl)pyridin-3-ol]
22 | ≤ 100 | CC1(C)CC(Oc2ccc(-c3ncc(-c4ccc5nccn5n4)cc3O)nn2)CC(C)(C)N1 [Compound 65, 5-(imidazo[1,2-b]pyridazin-6-yl)-2-{6-[(2,2,6,6-tetramethylpiperidin-4-yl)oxy]pyridazin-3-yl}pyridin-3-ol]
23 | ≤ 100 | CN[C@@H]1CCN(c2ccc(-c3ncc(-c4cnc(C)o4)cc3O)nn2)C1 [Compound 77, 2-{6-[(3R)-3-(methylamino)pyrrolidin-1-yl]pyridazin-3-yl}-5-(2-methyl-1,3-oxazol-5-yl)pyridin-3-ol]
24 | 500 to 1000 | CC(C)C1CN(c2ccc(-c3ncc(/C=C/c4cn[nH]c4)cc3O)nn2)CCN1 (stereo not drawn) [Compound 130, 2-{6-[3-(propan-2-yl)piperazin-1-yl]pyridazin-3-yl}-5-[(E)-2-(1H-pyrazol-4-yl)ethenyl]pyridin-3-ol]
25 | ≤ 100 | Cc1cn2cc(-c3cnc(-c4cnc(N5CCN(C)CC5)nn4)c(O)c3)cc(F)c2n1 [Compound 151, 5-(8-fluoro-2-methylimidazo[1,2-a]pyridin-6-yl)-2-[3-(4-methylpiperazin-1-yl)-1,2,4-triazin-6-yl]pyridin-3-ol]
26 | 500 to 1000 | [2H]C([2H])([2H])n1cc(-c2cnc(-c3ccc(O[C@H]4C[C@H](C)NC5(CC5)C4)nn3)c(O)c2)cn1 [Compound 84, 2-(6-{[(5S,7S)-5-methyl-4-azaspiro[2.5]octan-7-yl]oxy}pyridazin-3-yl)-5-[1-(^2H3)methyl-1H-pyrazol-4-yl]pyridin-3-ol]
27 | 500 to 1000 | CC1CN(c2ccc(-c3ncc(NCc4cccc5cccnc45)cc3O)nn2)CCN1 (stereo not drawn) [Compound 113, 2-[6-(3-methylpiperazin-1-yl)pyridazin-3-yl]-5-{[(quinolin-8-yl)methyl]amino}pyridin-3-ol]

— patent US12577226B2, “Compounds for treating Huntington's disease” (PTC THERAPEUTICS, INC., priority 2019, dated 2026)
